Laboratory results published in PMC11375437, “Selective labelling of GBA2 in cells with fluorescent β-D-arabinofuranosyl cyclitol aziridines” (Chemical Science, 2024).

Molecular target: T1, GBA2 (Homo sapiens, UniProt Q9HCG7)
T1 sequence (Q9HCG7 1-927): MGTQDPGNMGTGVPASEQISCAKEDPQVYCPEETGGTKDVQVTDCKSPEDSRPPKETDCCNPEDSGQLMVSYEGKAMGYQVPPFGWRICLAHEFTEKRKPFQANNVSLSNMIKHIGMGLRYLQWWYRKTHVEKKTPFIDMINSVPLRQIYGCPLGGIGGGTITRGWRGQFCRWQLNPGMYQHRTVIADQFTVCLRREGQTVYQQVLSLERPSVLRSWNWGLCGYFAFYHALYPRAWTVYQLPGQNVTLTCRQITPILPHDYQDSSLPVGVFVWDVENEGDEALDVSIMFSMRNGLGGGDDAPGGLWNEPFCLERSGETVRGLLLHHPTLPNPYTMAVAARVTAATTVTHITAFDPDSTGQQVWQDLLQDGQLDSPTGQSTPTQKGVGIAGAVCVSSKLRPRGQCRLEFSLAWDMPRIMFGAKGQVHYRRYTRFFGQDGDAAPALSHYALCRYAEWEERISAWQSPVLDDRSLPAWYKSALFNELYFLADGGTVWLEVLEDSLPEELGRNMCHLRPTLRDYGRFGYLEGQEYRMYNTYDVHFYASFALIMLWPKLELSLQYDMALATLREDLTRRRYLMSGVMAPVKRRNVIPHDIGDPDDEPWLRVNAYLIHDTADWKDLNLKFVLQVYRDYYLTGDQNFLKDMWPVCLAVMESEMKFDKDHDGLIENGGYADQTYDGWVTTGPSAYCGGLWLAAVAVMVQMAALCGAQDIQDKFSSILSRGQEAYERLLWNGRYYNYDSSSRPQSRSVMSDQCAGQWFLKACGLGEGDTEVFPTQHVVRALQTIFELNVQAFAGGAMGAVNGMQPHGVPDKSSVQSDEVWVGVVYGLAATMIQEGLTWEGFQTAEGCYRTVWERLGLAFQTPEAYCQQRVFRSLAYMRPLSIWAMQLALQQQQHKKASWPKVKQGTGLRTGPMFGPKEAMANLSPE
Test: In vitro ABP labelling of HEK293T lysates (ABPP, SDS-PAGE fluorescence scanning)
Format: biochemical
Design: expressed in transfected cells; host or cells: HEK293T GBA1/GBA2 KO (CRISPR/Cas9), GBA2 overexpressed
Conditions: for Concentration at which GBA2 is selectively labelled: 30 min, pH 6.0
Experimental: To this end, lysates of HEK293T cells containing all β-glucosidases (endogenous GBA1 with overexpressed GBA2 and GBA3) were treated with ABPs 3, 4, 5 or 7, followed by protein separation by SDS-PAGE and fluorescence scanning of the wet gel slabs. […] In contrast, the β-D-Araf aziridine ABPs 3 and 4 selectively labelled GBA2 at a concentration of 100 nM, while Cy5 tagged ABP 5 did so at 500 nM. The GBA2 selectivity of β-D-Araf cyclitol aziridines 3, 4 and 5 was confirmed in a mixture of a lysate of overexpressed GBA2 cells spiked with 3 ng rhGBA1 (Fig. 2C and ESI Fig. S3 ^†). In this experiment, the enzyme mixture was first incubated with β-D-Araf aziridine ABPs 3, 4, or 5 for 30 minutes, after which selective GBA1 ABP 10 [32] or 11 [30] was added to label the remaining active rhGBA1 active site. […] The pH and incubation time dependence labelling of GBA2 in HEK293T cells containing all three retaining β-glucosidases by β-D-Araf ABPs was next investigated (Fig. 2D, E and ESI Fig. S4 ^†). All ABPs selectively label GBA2 at a pH range of 4.5–7.5. Using 500 nM of ABP 4, GBA2 labelling occurred within a minute, and maximal labelling was observed after 20–30 minutes. […] Therefore, only a combined inactivation rate constant (kinact) and binding constant (KI) ratio (kinact/KI) could be measured. […] Importantly, no labelling of GBA1 or GBA3 was detected under varying pH and time conditions (ESI Fig. S4-2 ^†). […]
2.6 Visualization of ABP labelling towards β-glucosidases by activity-based protein profiling (ABPP) with SDS-PAGE
β-Glucosidases were labeled with excess of fluorescent ABPs at optimum conditions at 37 °C for 30 min (if not otherwise stated). The total sample volume was 20–40 μL with 0.5–1% DMSO concentration in appropriate pH McIlvaine buffer (150 mM). To label lysates containing all β-glucosidases (GBA1, GBA2 and GBA3), ABP 7 was used at pH 6.0 in McIlvaine buffer. To label lysate only containing GBA2 (GBA1/2 KO and GBA2 OE cell lysate), ABP (3-5, or 7) was incubated at pH 5.8 in McIlvaine buffer was used. To label rhGBA1 (Imiglucerase), ABP (10 or 11) at pH 5.2 in McIlvaine buffer supplemented with 0.1% (v/v) Triton X-100 and 0.2% (w/v) sodium taurocholate were used.
After incubation with the corresponding ABPs, proteins were denatured by boiling the samples with 5× Laemmli buffer (50% (v/v) 1 M Tris-HCl, pH 6.8, 50% (v/v) 100% glycerol, 10% (w/v) DTT, 10% (w/v) SDS, 0.01% (w/v) bromophenol blue, diluted into 1x for use) for 5 min at 98 °C, and separated by electrophoresis on 10% SDS-PAGE gels run at 90 V for 1.0-1.5 h. Wet slab-gels were imaged using the Typhoon FLA 9500 scanner (GE Healthcare, Eindhoven, The Netherlands) at λEX 473 nm and λEM ≥ 510 nm for BODIPY green fluorescence; at λEX 532 nm and λEM ≥ 575 nm for the BODIPY red fluorescence ; at λEX 635 nm and λEM ≥ 665 nm for Cy5 fluorescence. Afterwards, wet slab-gels were stained by Coomassie brilliant blue (CBB) G250 or R250 for total protein staining and scanned with a ChemiDocTM MP Imaging System (Bio-Rad, Veenendaal, The Netherlands).
2.7 Determination of kinetic parameters of ABP 4
The kinetic parameters of ABP 4 for GBA2 was determined by SDS-PAGE analysis in lysates of HEK293T GBA1/2 knock out GBA2 overexpression cells in which the relative intensity of the band on wet gel slabs (compared to labelling control) was used to calculate the inactivation parameters of GBA2. Lysates were made as previous cell lysis description. […]

[1] = HEK293T lysate, endogenous GBA1, overexpressed GBA2 and GBA3

Structure (SMILES) | Time to maximal GBA2 labelling (500 nM ABP, HEK293T lysate containing all three β-glucosidases) | Concentration at which GBA2 is selectively labelled [1] | β-Glucosidases labelled in lysate [1]
COc1ccc(C2=[N+]3C(=C(CCCCc4cn(CCCCCCCCN5[C@@H]6[C@H](CO)[C@@H](O)[C@H](O)[C@@H]65)nn4)c4ccc(-c5ccc(OC)cc5)n4[B-]3(F)F)C=C2)cc1 (some centres unmarked) [ABP 4] | 20 to 30 min | 100 nM | 
CN1/C(=C/C=C/C=C/C2=[N+](CCCCCC(=O)NCc3cn(CCCCCCCCN4[C@@H]5[C@H](CO)[C@@H](O)[C@H](O)[C@@H](O)[C@@H]54)nn3)c3ccccc3C2(C)C)C(C)(C)c2ccccc21 (some centres unmarked) [ABP 7] |  |  | labelled all three β-glucosidases
CC1=CC(C)=[N+]2C1=C(CCCCc1cn(CCCCCCCCN3[C@@H]4[C@H](CO)[C@@H](O)[C@H](O)[C@@H]43)nn1)c1c(C)cc(C)n1[B-]2(F)F (some centres unmarked) [ABP 3] |  | 100 nM | 
CN1/C(=C/C=C/C=C/C2=[N+](CCCCCC(=O)NCc3cn(CCCCCCCCN4[C@@H]5[C@H](CO)[C@@H](O)[C@H](O)[C@@H]54)nn3)c3ccccc3C2(C)C)C(C)(C)c2ccccc21 (some centres unmarked) [ABP 5] |  | 500 nM | 
